This is an account of results in patent US20060135589A1, “1h-Indazole-3-carboxamide compounds as cyclin dependent kinase (cdk) inhibitors” (Astex Technology, Inc., priority 2002, published 2006).

The assay has as its target T1, CDK2/CyclinA (Homo sapiens, UniProt P24941).
T1 construct: purchased Upstate Biotechnology
In words: Measurement of CDK2 kinase inhibitory activity (IC50), 33P-ATP / histone H1 filter assay. The format is biochemical. As to the method:
Measurement of CDK2 Kinase Inhibitory Activity (IC50)
Compounds of the invention were tested for kinase inhibitory activity using the following protocol.
1.7 μl of active CDK2/CyclinA (Upstate Biotechnology, 10 U/μl) is diluted in assay buffer (250 μl of 10× strength assay buffer (200 mM MOPS pH 7.2, 250 mM β-glycerophosphate, 50 mM EDTA, 150 mM MgCl2), 11.27 μl 10 mM ATP, 2.5 μl 1M DTT, 25 μl 100 mM sodium orthovanadate, 708.53 μl H2O), and 10 μl mixed with 10 μl of histone substrate mix (60 μl bovine histone H1 (Upstate Biotechnology, 5 mg/ml), 940 μl H2O, 35 μCi γ^33P-ATP) and added to 96 well plates along with 5 μl of various dilutions of the test compound in DMSO (up to 2.5%). The reaction is allowed to proceed for 5 hours before being stopped with an excess of ortho-phosphoric acid (30 μl at 2%).
γ^33P-ATP which remains unincorporated into the histone H1 is separated from phosphorylated histone H1 on a Millipore MAPH filter plate. The wells of the MAPH plate are wetted with 0.5% orthophosphoric acid, and then the results of the reaction are filtered with a Millipore vacuum filtration unit through the wells. Following filtration, the residue is washed twice with 200 μl of 0.5% orthophosphoric acid. Once the filters have dried, 25 μl of Microscint 20 scintillant is added, and then counted on a Packard Topcount for 30 seconds.
For orientation: inhibition means the drop in the measured response relative to a control, in per cent. Read a high inhibition as a response far below the control. Regarding `CNS(=O)(=O)Cc1ccc(NC(=O)c2n[nH]c3ccc(-c4nccs4)cc23)cc1` [Example 29, 5-Thiazol-2-yl-1H-indazole-3-carboxylic acid (4-methylsulphamoylmethyl-phenyl)-amide], the inhibition at 50 µM is not below 50%.
The same measure for `CNS(=O)(=O)Cc1ccc(NC(=O)c2n[nH]c3ccc(-c4ccco4)cc23)cc1` [Example 23, 5-Furan-2-yl-1H-indazole-3-carboxylic acid (4-methylsulphamoylmethyl-phenyl)-amide]: not below 50%; for `O=C(Nc1ccccc1)c1n[nH]c2ccc(-c3ccccc3-c3ccccc3)cc12` [Example 85, 5-Biphenyl-2-yl-1H-indazole-3-carboxylic acid phenylamide]: not below 50%.
`CNS(=O)(=O)Cc1ccc(NC(=O)c2n[nH]c3ccc(-c4c(C)noc4C)cc23)cc1` [Example 22, 5-(3,5-Dimethyl-isoxazol-4-yl)-1H-indazole-3-carboxylic acid (4-methylsulphamoylmethyl-phenyl)-amide] had an inhibition at 50 µM not below 50%.
`O=C(NC1CCN(C(=O)C(F)(F)F)CC1)c1n[nH]c2ccccc12` [Example 66, 1H-Indazole-3-carboxylic acid [1-(2,2,2 trifluoro-acetyl)-Piperidin-4-yl]-amide]: the inhibition at 50 µM was not below 50%.
Consider `O=C(Nc1ccccc1)c1n[nH]c2ccc(N3CCCC3)cc12` [Example 84, 5-pyrrolidin-1-yl-1H-indazole-3-carboxylic acid phenylamide], for which the inhibition at 50 µM is not below 50%.
Take `NS(=O)(=O)c1ccc(NC(=O)c2n[nH]c3ccc(I)cc23)cc1` [Example 12, N-(4-aminosulphonylphenyl)-5-iodo-1H-indazole-3-carboxamide]: the inhibition at 50 µM is not below 50%.
The same measure for `O=C(Nc1cccnc1)c1n[nH]c2ccc(Cl)cc12` [Example 47]: not below 50%; for `CS(=O)(=O)c1cccc(NC(=O)c2n[nH]c3ccc(I)cc23)c1` [Example 14, N-(3-methanesulphonylphenyl)-5-iodo-1H-indazole-3-carboxamide]: not below 50%; for `O=C(Nc1ccc(-c2c[nH]cn2)cc1)c1n[nH]c2ccccc12` [Example 8, N-[4-(1H-imidazol-4-yl)phenyl]-1H-indazole-3-carboxamide]: not below 50%.
`CCOC(=O)N1CCC(NC(=O)c2n[nH]c3ccc([N+](=O)[O-])cc23)CC1` [Example 34] registered an inhibition at 50 µM not below 50%.
Consider `O=C(Nc1cccnc1)c1n[nH]c2ccc(I)cc12` [Example 40], for which the inhibition at 50 µM was not below 50%.
On to `CCCCNC(=O)NS(=O)(=O)c1ccc(NC(=O)c2n[nH]c3ccccc23)cc1` [Example 35], for which the inhibition at 50 µM was not below 50%.
In turn, `CS(=O)(=O)NCc1ccc(NC(=O)c2n[nH]c3ccc([N+](=O)[O-])cc23)cc1` [Example 33] came in with an inhibition at 50 µM not below 50%.
Then `O=C(Nc1ccc(S(=O)(=O)N2CCOCC2)cc1)c1n[nH]c2ccccc12` [Example 10, N-[4-(morpholine-4-sulphonyl)phenyl]-1H-indazole-3-carboxamide], with not below 50%.
In the case of `O=C(Nc1ccc[nH]c1=O)c1n[nH]c2ccc(I)cc12` [Example 53], the inhibition at 50 µM is not below 50%.
Compound `CNS(=O)(=O)Cc1ccc(NC(=O)c2n[nH]c3ccc(I)cc23)cc1` [Example 13] displayed an inhibition at 50 µM not below 50%.
Turning to `O=C(NC1CCOCC1)c1n[nH]c2ccc(Cl)cc12` [Example 42], the inhibition at 50 µM was not below 50%.
The same measure for `O=C(Nc1ccccc1)c1n[nH]c2ccc(CCc3ccccc3)cc12` [Example 87, 5-Phenethyl-1H-indazole-3-carboxylic acid phenylamide]: not below 50%; for `O=C(Nc1cccc(-c2nnn[nH]2)c1)c1n[nH]c2ccccc12` [Example 4, N-[3-(1H-tetrazol-5-yl)phenyl]-1H-indazole-3-carboxamide]: not below 50%.
`O=C(Nc1ccc(Cl)nc1)c1n[nH]c2ccccc12` [Example 28, 1H-Indazole-3-carboxylic acid (6-chloro-pyridin-3-yl)-amide] yielded an inhibition at 50 µM not below 50%.
The compound `Cc1ccc2[nH]nc(C(=O)Nc3ccc(F)cc3)c2c1` [Example 72, 5-Methyl-1H-indazole-3-carboxylic acid (4-fluoro-phenyl)-amide] returned an inhibition at 50 µM not below 50%.
As to `CCc1nnc(NC(=O)c2n[nH]c3ccc(Cl)cc23)s1` [Example 51], the inhibition at 50 µM is not below 50%.
Then `NS(=O)(=O)c1ccc(NC(=O)c2n[nH]c3ccccc23)cc1` [Example 26, 1H-Indazole-3-carboxylic acid (4-sulphamoyl-phenyl)-amide], with not below 50%; and `CC(=O)NCc1ccc(NC(=O)c2n[nH]c3ccc(Cl)cc23)cc1` [Example 65, 5-Chloro-1H-indazole-3-carboxylic acid [4-(acetylamino-methyl)-phenyl]-amide], with not below 50%; and `O=C(NC1CCN(Cc2ccccc2)C1)c1n[nH]c2ccc(Cl)cc12` (stereo not shown) [Example 37], with not below 50%.
The same measure for `O=C(Nc1ccc(F)cc1)c1n[nH]c2cccc(Br)c12` [Example 71, 4-Bromo-1H-indazole-3-carboxylic acid (4-fluoro-phenyl)-amide]: not below 50%; for `COc1ccc(NC(=O)c2n[nH]c3ccc(I)cc23)cn1` [Example 39]: not below 50%; for `CNS(=O)(=O)Cc1ccc(NC(=O)c2n[nH]c3ccc(-c4cccs4)cc23)cc1` [Example 21, 5-Thiophen-2-yl-1H-indazole-3-carboxylic acid (4-methylsulphamoylmethyl-phenyl)-amide]: not below 50%.
As to `CNS(=O)(=O)Cc1ccc(NC(=O)c2n[nH]c3ccc(-c4cc5ccccc5o4)cc23)cc1` [Example 24, 5-Benzofuran-2-yl-1H-indazole-3-carboxylic acid (4-methylsulphamoylmethyl-phenyl)-amide], the inhibition at 50 µM is not below 50%.
Compound `CNS(=O)(=O)Cc1ccc(NC(=O)c2n[nH]c3ccc(Cl)cc23)cc1` [Example 25, 5-Chloro-1H-indazole-3-carboxylic acid (4-methylsulphamoylmethyl-phenyl)-amide] yielded an inhibition at 50 µM not below 50%.
With `O=C(Nc1ccc(F)cc1)c1n[nH]c2ccc(I)cc12` [Example 58], the inhibition at 50 µM is not below 50%.
Compound `CS(=O)(=O)c1cccc(NC(=O)c2n[nH]c3ccc([N+](=O)[O-])cc23)c1` [Example 78] had an inhibition at 50 µM not below 50%.
In turn, `CN1CCC(NC(=O)c2n[nH]c3ccc(Cl)cc23)CC1` [Example 43] displayed an inhibition at 50 µM not below 50%.
Then `O=C(Nc1ccc(Cl)nc1)c1n[nH]c2ccc(I)cc12` [Example 56], with not below 50%; and `CNS(=O)(=O)Cc1ccc(NC(=O)c2n[nH]c3ccc([N+](=O)[O-])cc23)cc1` [Example 19, 5-Nitro-1H-indazole-3-carboxylic acid (4-methylsulphamoylmethyl-phenyl)-amide], with not below 50%.
The compound `O=C(Nc1ccc(N2CCOCC2)cc1)c1n[nH]c2ccc(Cl)cc12` [Example 74] showed an inhibition at 50 µM not below 50%.
As to `O=C(Nc1cccc(-c2cnco2)c1)c1n[nH]c2ccccc12` [Example 7, N-[3-(oxazol-5-yl)phenyl)-1H-indazole-3-carboxamide], the inhibition at 50 µM is not below 50%.
Compound `O=C(Nc1cccc(-c2nnn[nH]2)c1)c1n[nH]c2ccc(Cl)cc12` [Example 75] yielded an inhibition at 50 µM not below 50%.
In turn, `O=C(Nc1ccccc1)c1n[nH]c2ccc(N3CCOCC3)cc12` [Example 17, 5-Morpholin-4-yl-1H-indazole-3-carboxylic acid phenylamide] gave an inhibition at 50 µM not below 50%.
On to `O=C(Nc1ccc(F)cc1)c1n[nH]c2ccccc12` [Example 70, 1H-Indazole-3-carboxylic acid (4-fluoro-phenyl)-amide], for which the inhibition at 50 µM was not below 50%.
For `O=C(Nc1ccc(F)cc1)c1n[nH]c2cc(Br)ccc12` [Example 73, 6-Bromo-1H-indazole-3-carboxylic acid (4-fluoro-phenyl)-amide], the inhibition at 50 µM was not below 50%.
Compound `CNS(=O)(=O)Cc1ccc(NC(=O)c2n[nH]c3ccc(-c4ccccc4)cc23)cc1` [Example 32] yielded an inhibition at 50 µM not below 50%.
`O=C(Nc1cccnc1Cl)c1n[nH]c2ccc(I)cc12` [Example 44] displayed an inhibition at 50 µM not below 50%.
The compound `N=C(N)NS(=O)(=O)c1ccc(NC(=O)c2n[nH]c3ccccc23)cc1` [Example 36] had an inhibition at 50 µM not below 50%.
On to `O=C(Nc1ccccc1)c1n[nH]c2ccccc12` [Example 27], for which the inhibition at 50 µM is not below 50%.
The same measure for `Cc1ccc(NC(=O)c2n[nH]c3ccc(I)cc23)nn1` [Example 50]: not below 50%; for `CC(=O)Nc1ccc(NC(=O)c2n[nH]c3ccc(I)cc23)cn1` [Example 59]: not below 50%; for `O=C(Nc1ccccc1)c1n[nH]c2ccc(N3CCCS3(=O)=O)cc12` [Example 86, 5-(1,1-Dioxo-1lambda*6*-isothiazolidin-2-yl)-1H-indazole-3-carboxylic acid phenylamide]: not below 50%.
